According to paper PMC4214152 (Chemical science (Royal Society of Chemistry : 2010), 2011):

Experiments:
physchem = type: physicochemical
αIIbβ3 integrin = αIIbβ3 integrin (Homo sapiens, UniProt P05106+P08514); experiment: Hyperpolarized 129Xe NMR binding assay
αvβ3 integrin receptor = αvβ3 integrin receptor (Homo sapiens, UniProt P05106+P06756); type: binding
[1] = target: purified human αIIbβ3 integrin receptor (Homo sapiens, UniProt P05106+P08514); type: binding
[2] = system: AsPC-1 pancreatic carcinoma; experiment: Cell viability by MTT assay; type: cell-based; conditions: AsPC-1, 100 μM, 24 h
[3] = system: NCI-H1975 lung carcinoma cells; experiment: Cell viability by MTT assay; type: cell-based; conditions: NCI-H1975, 100 μM, 24 h
HFL-1 lung fibroblasts = conditions: HFL-1, 100 μM, 24 h incubation
[4] = 50 μM with 16 μM αIIbβ3 integrin, Tris buffer, 30% glycerol, 0.1% Triton X-100

SMILES	solubility (physchem)	129Xe NMR chemical shift of "bound" biosensor (αIIbβ3 integrin; [4])	129Xe NMR chemical shift of "free" biosensor (αIIbβ3 integrin; [4])	129Xe NMR chemical shift of biosensor alone (αIIbβ3 integrin; 100 μM, Tris buffer (1 mM, pH 7.2))	lower affinity compared to c[RGDyK] peptide alone (αvβ3 integrin receptor)	weaker binding compared to c[RGDyK] peptide [1]	maximum toxicity [2]	maximum toxicity [3]	maximum toxicity (HFL-1 lung fibroblasts)
COc1cc2c3cc1OCCOc1cc4c(cc1OCc1cn(CCCC[C@@H]5NC(=O)[C@@H](Cc6ccc(O)cc6)NC(=O)[C@H](CC(=O)O)NC(=O)CNC(=O)[C@H](CCCNC(=N)N)NC5=O)nn1)Cc1cc5c(OCc6cn(CCC(=O)O)nn6)cc1Cc1cc(c(OCc6cn(CCC(=O)O)nn6)cc1C4)OCCOc1cc(c(cc1OC)Cc1cc(c(OC)cc1C3)OCCO5)C2 [Biosensor 5]	≤ 250 µM	71.2 ppm	67.1 ppm	65.8 ppm	–	–	–	–	–
C#CCOc1cc2c3cc1OCCOc1cc4c(cc1OC)Cc1cc5c(OC)cc1Cc1cc(c(OC)cc1C4)OCCOc1cc(c(cc1OCC#C)Cc1cc(c(OCc4cn(CCCC[C@@H]6NC(=O)[C@@H](Cc7ccc(O)cc7)NC(=O)[C@H](CC(=O)O)NC(=O)CNC(=O)[C@H](CCCNC(=N)N)NC6=O)nn4)cc1C3)OCCO5)C2 [Biosensor 3]	–	–	–	–	approximately 4 fold	approximately 10 fold	61%	57%	40%
